From publication doi:10.1101/2024.06.16.599186v1 (biorxiv, 2024)
Where a name gives a salt, the structure may show the parent alone.

Target: MoGep4 (Pyricularia oryzae, UniProt G4N1T8)
Sequence (G4N1T8 1-216): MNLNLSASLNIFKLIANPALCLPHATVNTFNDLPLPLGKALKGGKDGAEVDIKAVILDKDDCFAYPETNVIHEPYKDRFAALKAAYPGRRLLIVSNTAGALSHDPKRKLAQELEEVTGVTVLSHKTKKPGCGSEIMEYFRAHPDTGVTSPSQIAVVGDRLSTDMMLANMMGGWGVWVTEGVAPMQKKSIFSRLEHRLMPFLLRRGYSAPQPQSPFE

CCCCC(CC)CNC(=N)NC(=N)NCCCCCCNC(=N)NC(=N)NCC(CC)CCCC (stereo not shown) [AXD, alexidine dihydrochloride]
% inhibition at 4 μM: 62.9%
